pEC50: −log10 of the molar value. Where a name gives a salt, the structure may show the parent alone.
How the values were obtained:
rat GPR120 = biological target: T1, rat GPR120 (Rattus norvegicus, UniProt Q2AC31); test: Rat GPR120 IP1 assay (inositol phosphate turnover); format: cell-based; conditions: IP1 accumulation in HEK293 cells stably expressing rat GPR120
T1 construct: expressed in transfected cells; host or cells: HEK293
T1 sequence (Q2AC31 1-361): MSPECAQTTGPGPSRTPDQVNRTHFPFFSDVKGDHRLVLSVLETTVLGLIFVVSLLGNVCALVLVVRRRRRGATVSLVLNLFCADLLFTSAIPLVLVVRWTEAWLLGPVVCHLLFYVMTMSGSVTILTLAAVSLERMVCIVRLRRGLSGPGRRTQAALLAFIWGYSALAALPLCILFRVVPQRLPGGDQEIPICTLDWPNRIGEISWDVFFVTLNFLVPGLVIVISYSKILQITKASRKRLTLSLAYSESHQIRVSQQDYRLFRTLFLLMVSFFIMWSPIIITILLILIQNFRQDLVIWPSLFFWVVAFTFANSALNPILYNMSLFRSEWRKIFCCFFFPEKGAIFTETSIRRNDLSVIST
Text: The binding of small molecule agonists to the G-protein-coupled receptor GPR120 activates phospholipase C, and leads to the generation of inositol 1,4,5-trisphosphate (InsP3 or IP3). IP3 is subsequently de-phosphorylated to IP1, which accumulates in cells and is stable in the presence of lithium chloride.
In the present method, agonist-induced activation of the human and rat GPR120 receptor was monitored by measuring the accumulation of IP1 in CHO-K1 cells that were stably expressing the short form of human GPR120 (Accession #NM_001195755) or HEK293 cells stably expressing rat GPR120 (Accession #NM_001047088). Following agonist addition, GPR120 activation and subsequent accumulation of IP1 was measured using a homogeneous Time Resolved Fluorescence-based ELISA commercially available from CisBio (IP-one ELISA Kit). The IP-One ELISA was a competitive immunoassay which uses IP1 labeled with […] and a terbium cryptate-labeled anti-IP1 monoclonal antibody. […] The signal loss was then back calculated to IP1 concentration using an IP1 standard curve. Determination of IP1 concentration was a direct measure of GPR120 activation and was used to determine compound potency (EC50).
Human GPR120 stable cell-lines were generated in CHO cells. The expression plasmids were transfected using lipofectamine (Life Technologies) following manufacturer's instructions. Stable cell-lines were generated following drug selection and single cell cloning. Rat GPR120 stable cell-lines were generated in HEK cells using the Jump-In™ cell engineering platform (Life Technologies) following manufacturer's instructions. Stable cell-lines were generated following drug selection and single cell cloning.
The assay was performed in 384-well format. CHO cells stably expressing human GPR120 were plated at 20,000 cells per well in growth medium (DMEM/F12, 10% fetal calf serum). HEK293 cells stably expressing rat GPR120 were plated at […] per well in growth medium (DMEM, 10% fetal calf serum). Cell plates were then incubated 16 hours at 37 degrees in a 5% CO2 incubator. Measurement of Inositol Phosphate Turnover (IP1) was performed using the CisBio IP-One kit (Part number 62IPAPEB). After the 16 hour incubation, the growth media was removed by centrifugation using the BlueWasher (AusWasher GUI Ver. v1.0.1.8) Protocol #21-“Light Dry” and 10 μl of stimulation buffer (prepared as described in the kit) was added to each well. In a separate plate, compounds were diluted in DMSO (200-fold over the final concentration in the assay well) and 50 nl was acoustically transferred to the appropriate well in the assay cell plate. The plates were then incubated for 60 minutes at 37 degrees in a 5% CO2 incubator. 10 μl of detection buffer (also prepared as described in the IP-One kit) was added to each well and the plates were incubated at room temperature for 60 minutes in the dark. The plates were then read in a Perkin ElmerEnVision or equivalent reader able to measure FRET. Fluorescent ratio of emission at 665 and 620 nm was then converted to the IP1 concentration by back calculating from an IP1 standard curve prepared at the time of the assay. The data was normalized to % activity using a reference compound, and the EC50 values were determined using a standard 4-parameter fit.

human GPR120 = biological target: T2, human GPR120 (Homo sapiens, UniProt Q5NUL3); test: Human GPR120 IP1 assay (inositol phosphate turnover); format: cell-based; conditions: IP1 accumulation in CHO-K1 cells stably expressing the short form of human GPR120
T2 construct: expressed in transfected cells; host or cells: CHO-K1
T2 sequence (Q5NUL3 1-361): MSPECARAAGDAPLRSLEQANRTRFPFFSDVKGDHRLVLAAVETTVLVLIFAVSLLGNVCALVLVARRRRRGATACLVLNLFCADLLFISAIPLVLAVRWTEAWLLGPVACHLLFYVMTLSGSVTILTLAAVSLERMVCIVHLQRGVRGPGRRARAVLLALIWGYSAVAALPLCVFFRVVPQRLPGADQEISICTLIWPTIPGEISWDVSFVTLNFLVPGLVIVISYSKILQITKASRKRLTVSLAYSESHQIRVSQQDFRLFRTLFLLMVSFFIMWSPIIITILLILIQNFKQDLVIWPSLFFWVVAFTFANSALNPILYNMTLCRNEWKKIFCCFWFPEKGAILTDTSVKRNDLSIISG
Method in brief: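 Human receptor (short form) was stably expressed in CHO-K1 cells and rat receptor in HEK293 cells. Cells were exposed to compound for 60 min at 37° C in kit stimulation buffer. IP1 was quantified by HTRF 665/620 nm ratio against a standard curve, normalized to a reference compound, with EC50 from 4-parameter fits.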

Row | Structure (SMILES) | pEC50 (rat GPR120) | pEC50 (human GPR120)
1 | Oc1cc(-c2ccc(O[C@H]3C[C@H](c4ccc(C(F)(F)F)cn4)C3)nc2)on1 [Example 23, 5-[6-({trans-3-[5-(trifluoromethyl)pyridin-2-yl]cyclobutyl}oxy)pyridin-3-yl]isoxazol-3-ol] | 7.00 | –
2 | Oc1cc(-c2ccc(O[C@H]3C[C@@](F)(c4ccnc(OC5CCC5)c4)C3)nc2)on1 [Example 88, 2-(cyclobutyloxy)-4-(trans-1-fluoro-3-{[5-(3-hydroxyisoxazol-5-yl)pyridinium-2-yl]oxy}cyclobutyl)pyridinium bis(trifluoroacetate)] | 7.37 | –
3 | Oc1cc(-c2cnc(O[C@H]3C[C@H](c4ccc(Cl)cc4)C3)nc2)on1 [Example 115, 5-(2-{[trans-3-(4-chlorophenyl)cyclobutyl]oxy}pyrimidin-5-yl)isoxazol-3-ol] | 8.24 | –
4 | Oc1cc(-c2cnc(O[C@H]3C[C@](F)(c4ccnc(OC5CCC5)c4)C3)cn2)on1 [Example 96, sodium 5-[5-({cis-3-[2-(cyclobutyloxy)pyridin-4-yl]-3-fluorocyclobutyl}oxy)pyrazin-2-yl]isoxazol-3-olate] | 7.48 | –
5 | CCOc1cc([C@]2(F)C[C@@H](Oc3cnc(-c4cc(O)no4)cn3)C2)ccn1 [Example 94, 5-(5-{[cis-3-(2-ethoxypyridin-4-yl)-3-fluorocyclobutyl]oxy}pyrazin-2-yl)isoxazol-3-ol] | 6.05 | –
6 | Oc1cc(-c2cnc(O[C@H]3C[C@H](Oc4cccc(OC(F)(F)F)c4)C3)cn2)on1 [Example 61, sodium 5-[5-({trans-3-[3-(trifluoromethoxy)phenoxy]-cyclobutyl}oxy)pyrazin-2-yl]isoxazol-3-olate] | 8.74 | –
7 | Oc1cc(-c2cnc(O[C@H]3C[C@](F)(c4ccnc(OC5CC5)c4)C3)cn2)on1 [Example 91, ammonium 5-[5-({cis-3-[2-(cyclopropyloxy)pyridin-4-yl]-3-fluoro-cyclobutyl}oxy)pyrazin-2-yl]isoxazol-3-olate] | 7.44 | –
8 | Oc1cc(-c2ccc(O[C@H]3C[C@H](c4ccc(Cl)cc4)C3)cn2)on1 [Example 110, 5-{[trans-3-(4-chlorophenyl)cyclobutyl]oxy}-2-(3-hydroxyisoxazol-5-yl)pyridinium trifluoroacetate] | 8.96 | –
9 | Oc1cc(-c2cnc(O[C@H]3C[C@@](F)(c4nc(C(F)(F)F)cs4)C3)cn2)on1 [Example 102, ammonium 5-[5-({trans-3-fluoro-3-[4-(trifluoromethyl)-1,3-thiazol-2-yl]cyclobutyl}oxy)pyrazin-2-yl]isoxazol-3-olate] | 5.94 | –
10 | Oc1cc(-c2cnc(O[C@H]3C[C@@](F)(c4ccnc(OC5CCC5)c4)C3)cn2)on1 [Example 95, 5-[5-({trans-3-[2-(cyclobutyloxy)pyridin-4-yl]-3-fluorocyclobutyl}oxy)pyrazin-2-yl]isoxazol-3-ol] | 7.74 | –
11 | Oc1cc(-c2ccc(O[C@H]3C[C@H](c4ccc(F)cc4)C3)cc2)on1 [Example 12, 5-(4-{[trans-3-(4-fluorophenyl)cyclobutyl]oxy}phenyl)isoxazol-3-ol] | 8.82 | –
12 | Oc1cc(-c2ccc(O[C@H]3C[C@](F)(c4ccnc(OC5CCC5)c4)C3)nc2)on1 [Example 87, sodium 5-[6-({cis-3-[2-(cyclobutyloxy)pyridin-4-yl]-3-fluorocyclobutyl}oxy)pyridin-3-yl]isoxazol-3-olate] | 8.33 | –
13 | Oc1cc(-c2cnc(O[C@H]3C[C@@H](c4ccc(OC(F)F)cc4)C3)cn2)on1 [Example 58, 5-[5-({cis-3-[4-(difluoromethoxy)phenyl]cyclobutyl}oxy)pyrazin-2-yl]isoxazol-3-ol] | – | 6.98
14 | Oc1cc(-c2cnc(O[C@H]3C[C@H](c4ccc(C5CC(F)(F)C5)cc4)C3)cn2)on1 [Example 29, 5-[5-({trans-3-[4-(3,3-difluorocyclobutyl)phenyl]cyclobutyl}oxy)pyrazin-2-yl]isoxazol-3-ol] | – | 6.77
15 | Oc1cc(-c2ccc(O[C@H]3C[C@@H](c4ccnc(OC5CC5)c4)C3)nc2)on1 [Example 32, 5-[6-({cis-3-[2-(cyclopropyloxy)pyridin-4-yl]cyclobutyl}oxy)pyridin-3-yl]isoxazol-3-ol] | – | 7.80
16 | Oc1cc(-c2cnc(OC3CC(OCC4CCCC4)C3)cn2)on1 (mixture of isomers) [Example 81, sodium 5-(5-{[cis-3-(cyclopentylmethoxy)cyclobutyl]oxy}pyrazin-2-yl)isoxazol-3-olate (mixture of isomers predominantly cis)] | – | 7.51
17 | Oc1cc(-c2cnc(O[C@H]3C[C@@H](c4ccc(F)cc4)C3)nc2)on1 [Example 112, 5-(2-{[cis-3-(4-fluorophenyl)cyclobutyl]oxy}pyrimidin-5-yl)isoxazol-3-ol] | – | 6.19
18 | Oc1cc(-c2cnc(O[C@H]3C[C@@H](c4ccnc(OC5CC5)c4)C3)cn2)on1 [Example 34, 5-[5-({cis-3-[2-(cyclopropyloxy)pyridin-4-yl]cyclobutyl}oxy)pyrazin-2-yl]isoxazol-3-ol] | – | 7.60
19 | Oc1cc(-c2ccc(O[C@H]3C[C@@H](c4ccc(Cl)cc4)C3)cn2)on1 [Example 111, 5-{[cis-3-(4-chlorophenyl)cyclobutyl]oxy}-2-(3-hydroxyisoxazol-5-yl)pyridinium trifluoroacetate] | 9.10 | –
20 | Oc1cc(-c2cnc(O[C@H]3C[C@@H](c4cccc5ccccc54)C3)cn2)on1 [Example 43, 5-{5-[(cis-3-naphthalen-1-ylcyclobutyl)oxy]pyrazin-2-yl}isoxazol-3-ol] | – | 6.89
21 | CC(C)Oc1cc([C@]2(F)C[C@@H](Oc3ccc(-c4cc(O)no4)cn3)C2)ccn1 [Example 99, sodium 5-[6-({cis-3-fluoro-3-[2-(propan-2-yloxy)pyridin-4-yl]cyclobutyl}oxy)pyridin-3-yl]isoxazol-3-olate] | – | 7.77

Reference: US10864211B2, “Hydroxy isoxazole compounds useful as GPR120 agonists” (Merck Sharp & Dohme Corp., priority 2016, dated 2020)
